What all share (type): ADME, tissue-based
Series [1] has as its system Blood. As to the kind of experiment: Drug metabolism in human whole blood treated with 20 uM RRx-001 assessed as compound formation by LC-MS/MS method.
In series [2] the test system is Blood. The series is described as follows: Retention time in human whole blood in presence of 0.1% formic acid in acetonitrile at 20 uM by LC-MS/MS method.
For series [3], the system named is Blood. The series is described as follows: Retention time in human whole blood in presence of 0.1% formic acid in water at 20 uM by LC-MS/MS method.
Series [4] relates to Blood. As to the kind of experiment: Retention time in rat whole blood in presence of 0.1% formic acid in water at 20 uM by LC-MS/MS method.
For series [5], the system named is Blood. As to the kind of experiment: Drug metabolism in rat whole blood treated with 20 uM RRx-001 assessed as compound formation by LC-MS/MS method.
In series [6] the test system is Blood. As to the kind of experiment: Retention time in rat whole blood in presence of 0.1% formic acid in acetonitrile at 20 uM by LC-MS/MS method.

With `N[C@@H](CSCC(=O)N1CC([N+](=O)[O-])([N+](=O)[O-])C1)C(=O)NCC(=O)O`, the Drug metabolism result in the series with Blood [1] and with Blood [5] was “metabolite_detected” throughout. Besides, the Retention_time is on record as 6.2 min in the series with Blood [2], 8 min with Blood [3], 8 min with Blood [4] and 6.2 min in the series on Blood [6].

These data come from ChEMBL document CHEMBL3526110, “Preclinical evaluation of the metabolism and disposition of RRx-001, a novel investigative anticancer agent” (Drug Metab Dispos, 2012).
